Measured values from patent US11485701B2, “Insect repellent compounds and compositions, and methods thereof” (Iowa State University Research Foundation, Inc., priority 2016, dated 2022).

Test system: Northern house mosquitoes (Culex pipiens)
Assay: Short-term spatial repellency, static air repellency chamber
Format: in vivo
Conditions: Culex pipiens, 0.25 h; filter paper, 1 mL of 0.5% solution in acetone, air-dried 15 min; 15 min after introduction; read-out: Short-term Percentage repellency 15 min
Experimental: Northern house mosquitoes (Culex pipiens), a primary carrier of West Nile virus in eastern North America, were obtained from an established colony in the Medical Entomology Laboratory in the Department of Entomology at Iowa State University of Science and Technology, Ames Iowa. Mosquito rearing was performed by established protocols that are maintained by the Medical Entomology Laboratory. Repellency bioassays were performed with adult female mosquitoes that emerged 5-7 days previously. […] Mosquitoes, prior to testing, were held at 27° C., 80% relative humidity, and on a 16:8 hr light:dark photoperiod.
Repellency bioassays were performed using a static air repellency chamber, which has been described in various publications by the Pesticide Toxicology Laboratory at Iowa State University of Science and Technology, Ames, Iowa Briefly, a 9-cm×60-cm glass tube was used to monitor the distribution of mosquitoes at 15 min, 30 min, 60 min, 90 min, 120 min, and 150 min after introducing mosquitoes into the static air repellency chamber. […] One end of the spatial chamber contained a treated filter paper, whereas the other (untreated) end of the spatial chamber was not treated with compound. Controls contained filter papers treated with acetone, the solvent used to make the 0.5% solutions. Each end of the repellency chamber was secured with a 100-mm Petri dish using celluloid tape. After securing the petri dishes with corresponding treated or untreated filter papers to the spatial chamber, mosquitoes were anesthetized with carbon dioxide, and approximately 20 female mosquitoes were placed into each repellency chamber for one replicate. The opening of the spatial repellency chamber was secured with celluloid tape to prevent their escape. Chambers were oriented in opposite directions from the previous replicate to account for any directional effect. Four replicates were performed for data analysis for both the control and treatment groups.
Data for spatial repellency, the percentage repellency, is reported at each of the respective time points in the figures and tables mentioned below. The percentage spatial repellency is the examination of the distribution of mosquitoes and is calculated using the following equation: […]

Going from `CC(C)=CCCC(C)CC(=O)OC1COC1` (centres unmarked) [Compound 3071, 3-oxetanyl citronellate] to `CC(C)=CCCC(C)CC(=O)OCC1(C)COC1` (centres unmarked) [Compound 3070, (3-methyloxetan-3-yl) methyl citronellate], the pest or weed control at 0.5 % rises from 2.5% to 15%.

First: CC(C)=CCCC(C)CC(=O)OCC1CCC1 (centres unmarked) [Compound 2026, cyclobutylmethyl citronellate]
Second: CC(C)=CCCC(C)CCOC(=O)CC(F)(F)F (centres unmarked) [Compound 2235, citronellyl 3,3,3-trifluoropropanoate]
The pest or weed control at 0.5 % of the first is higher: 25% for the first, 12.5% for the second.

Compared with `CC(C)=CCCC(C)CCOC(=O)C(C)(C)F` (centres unmarked) [Compound 2208, citronellyl 2-fluoroisobutyrate], `CC(C)=CCCC(C)CCOC(=O)C(C)(F)F` (centres unmarked) [Compound 2232, citronellyl 2,2-difluoropropanoate] is higher in pest or weed control at 0.5 %: 37.5% for the first, 50% for the second.

First: CC(C)=CCCC(C)CCOC(=O)c1ccccc1 (centres unmarked) [Compound 2189, citronellyl benzoate]
Second: CC(C)=CCCC(C)CCOC(=O)C=C(C)C (centres unmarked) [Compound 2105, citronellyl 3,3-dimethylacrylate]
The pest or weed control at 0.5 % of the first is lower: 6.5% for the first, 45% for the second.

First: O=C(OC/C=C/c1ccccc1)C1CC1 [Compound 2038, cinnamyl cyclopropanecarboxylate]
Second: Cc1cc(OC(=O)C2CC2)c(C(C)C)cc1[N+](=O)[O-] [Compound 1066B, 4-nitrothymyl cyclopropanecarboxylate]
The pest or weed control at 0.5 % of the first is higher: 40% for the first, 37.5% for the second.

Going from `CC(C)CC(=O)OC1CC(C)CCC1C(C)C` (centres unmarked) [Compound 2256, menthyl isovalerate] to `CC1=CCC(C(C)(C)OC(=O)CC(C)C)CC1` (stereo not drawn) [Compound 2257, alpha-terpinyl isovalerate], the pest or weed control at 0.5 % falls from 37.5% to 10%.

Going from `CC(C)=CCC/C(C)=C/COC(=O)CC(C)C` [Compound 2255A, geranyl isovalerate] to `CCCCCCC(=O)OCCC(C)CCC=C(C)C` (centres unmarked) [Compound 2203, citronellyl hexanecarboxylate], the pest or weed control at 0.5 % falls from 35% to 0%.

Going from `Cc1ccc(C(C)C)cc1OC(=O)CC(C)C` [Compound 1079C, carvacryl isovalerate] to `C=CCc1ccc(OC(=O)CC(C)C)c(OC)c1` [Compound 1076A, eugenyl isovalerate], the pest or weed control at 0.5 % rises from -10% to 17.5%.

`CC(C)CC(=O)OCC1=CCC2CC1C2(C)C` (centres unmarked) [Compound 2258, myrteryl isovalerate] showed a pest or weed control at 0.5 % of 35%.

Same assay, conditions: Culex pipiens, 1.5 h; filter paper, 1 mL of 0.5% solution in acetone, air-dried 15 min; 90 min; read-out: Short-term Percentage repellency 90 min

Going from `CC(C)=CCCC(C)CC(=O)OC1COC1` (centres unmarked) [Compound 3071, 3-oxetanyl citronellate] to `CC(C)=CCCC(C)CC(=O)OCC1(C)COC1` (centres unmarked) [Compound 3070, (3-methyloxetan-3-yl) methyl citronellate], the pest or weed control at 0.5 % rises from 37.5% to 42.5%.

Compared with `CC(C)=CCCC(C)CC(=O)OCC1CCC1` (centres unmarked) [Compound 2026, cyclobutylmethyl citronellate], `CC(C)=CCCC(C)CCOC(=O)CC(F)(F)F` (centres unmarked) [Compound 2235, citronellyl 3,3,3-trifluoropropanoate] is higher in pest or weed control at 0.5 %: 37.5% for the first, 62.5% for the second.

Compared with `CC(C)=CCCC(C)CCOC(=O)C(C)(C)F` (centres unmarked) [Compound 2208, citronellyl 2-fluoroisobutyrate], `CC(C)=CCCC(C)CCOC(=O)C(C)(F)F` (centres unmarked) [Compound 2232, citronellyl 2,2-difluoropropanoate] is higher in pest or weed control at 0.5 %: 75% for the first, 82.5% for the second.

Compared with `CC(C)=CCCC(C)CCOC(=O)c1ccccc1` (centres unmarked) [Compound 2189, citronellyl benzoate], `CC(C)=CCCC(C)CCOC(=O)C=C(C)C` (centres unmarked) [Compound 2105, citronellyl 3,3-dimethylacrylate] is higher in pest or weed control at 0.5 %: 17.5% for the first, 75% for the second.

`O=C(OC/C=C/c1ccccc1)C1CC1` [Compound 2038, cinnamyl cyclopropanecarboxylate] and `Cc1cc(OC(=O)C2CC2)c(C(C)C)cc1[N+](=O)[O-]` [Compound 1066B, 4-nitrothymyl cyclopropanecarboxylate] are the same in pest or weed control at 0.5 %: 57.5% for the first, 57.5% for the second.

Compared with `CC(C)CC(=O)OC1CC(C)CCC1C(C)C` (centres unmarked) [Compound 2256, menthyl isovalerate], `CC1=CCC(C(C)(C)OC(=O)CC(C)C)CC1` (stereo not drawn) [Compound 2257, alpha-terpinyl isovalerate] is higher in pest or weed control at 0.5 %: 42.5% for the first, 55% for the second.

Going from `CC(C)=CCC/C(C)=C/COC(=O)CC(C)C` [Compound 2255A, geranyl isovalerate] to `CCCCCCC(=O)OCCC(C)CCC=C(C)C` (centres unmarked) [Compound 2203, citronellyl hexanecarboxylate], the pest or weed control at 0.5 % falls from 60% to 10%.

Compared with `Cc1ccc(C(C)C)cc1OC(=O)CC(C)C` [Compound 1079C, carvacryl isovalerate], `CC(C)CC(=O)OCC1=CCC2CC1C2(C)C` (centres unmarked) [Compound 2258, myrteryl isovalerate] is lower in pest or weed control at 0.5 %: 87.5% for the first, 85% for the second.

Same assay, conditions: Culex pipiens, 2.5 h; filter paper, 1 mL of 0.5% solution in acetone, air-dried 15 min; 150 min; read-out: Short-term Percentage repellency 150 min

Going from `CC(C)=CCCC(C)CC(=O)OC1COC1` (centres unmarked) [Compound 3071, 3-oxetanyl citronellate] to `CC(C)=CCCC(C)CC(=O)OCC1(C)COC1` (centres unmarked) [Compound 3070, (3-methyloxetan-3-yl) methyl citronellate], the pest or weed control at 0.5 % falls from 40% to 32.5%.

First: CC(C)=CCCC(C)CC(=O)OCC1CCC1 (centres unmarked) [Compound 2026, cyclobutylmethyl citronellate]
Second: CC(C)=CCCC(C)CCOC(=O)CC(F)(F)F (centres unmarked) [Compound 2235, citronellyl 3,3,3-trifluoropropanoate]
The pest or weed control at 0.5 % of the first is lower: 25% for the first, 77.5% for the second.

Going from `CC(C)=CCCC(C)CCOC(=O)C(C)(C)F` (centres unmarked) [Compound 2208, citronellyl 2-fluoroisobutyrate] to `CC(C)=CCCC(C)CCOC(=O)C(C)(F)F` (centres unmarked) [Compound 2232, citronellyl 2,2-difluoropropanoate], the pest or weed control at 0.5 % rises from 77.5% to 82.5%.

First: CC(C)=CCCC(C)CCOC(=O)c1ccccc1 (centres unmarked) [Compound 2189, citronellyl benzoate]
Second: CC(C)=CCCC(C)CCOC(=O)C=C(C)C (centres unmarked) [Compound 2105, citronellyl 3,3-dimethylacrylate]
The pest or weed control at 0.5 % of the first is lower: 27.5% for the first, 65% for the second.

Compared with `O=C(OC/C=C/c1ccccc1)C1CC1` [Compound 2038, cinnamyl cyclopropanecarboxylate], `Cc1cc(OC(=O)C2CC2)c(C(C)C)cc1[N+](=O)[O-]` [Compound 1066B, 4-nitrothymyl cyclopropanecarboxylate] is higher in pest or weed control at 0.5 %: 60% for the first, 70% for the second.

First: CC(C)CC(=O)OC1CC(C)CCC1C(C)C (centres unmarked) [Compound 2256, menthyl isovalerate]
Second: CC1=CCC(C(C)(C)OC(=O)CC(C)C)CC1 (stereo not drawn) [Compound 2257, alpha-terpinyl isovalerate]
The pest or weed control at 0.5 % of the first is lower: 27.5% for the first, 65% for the second.

First: CC(C)=CCC/C(C)=C/COC(=O)CC(C)C [Compound 2255A, geranyl isovalerate]
Second: CCCCCCC(=O)OCCC(C)CCC=C(C)C (centres unmarked) [Compound 2203, citronellyl hexanecarboxylate]
The pest or weed control at 0.5 % of the first is higher: 52.5% for the first, 20% for the second.

Compared with `Cc1ccc(C(C)C)cc1OC(=O)CC(C)C` [Compound 1079C, carvacryl isovalerate], `CC(C)CC(=O)OCC1=CCC2CC1C2(C)C` (centres unmarked) [Compound 2258, myrteryl isovalerate] is lower in pest or weed control at 0.5 %: 95% for the first, 87.5% for the second.

Same assay, conditions: filter paper treated with 0.1%; FIG. 6

With `CC(C)=CCCC(C)CCOC(=O)CC1CC1` (centres unmarked) [Compound 2229, citronellyl cyclopropylacetate] the “Short-term repellency at low concentration, in words” value was “significant levels of repellency”.
